Seven molecules from US9056840B2, “Coelenterazine analogues and coelenteramide analogues” (JNC Corporation, priority 2010, dated 2015) can be followed below.

Data set [1] addresses T1, apoaequorin (Aequorea victoria, UniProt P07164).
T1 construct: purchased Chisso Corporation
As to the kind of experiment: Luminescence patterns of semi-synthetic aequorins, half decay time. It is filed as biochemical. The note with it: semi-synthetic aequorin; time in which luminescence becomes half of maximum; patterns measured for 60 seconds. As for the experimental part: A solution of the regenerated semi-synthetic aequorin was diluted to 10-fold with 20 mM Tris-HCl (pH 7.6) containing 0.1% BSA (manufactured by Sigma, Inc.), 0.01 mM EDTA and 150 mM NaCl. The dilution was dispensed into a 96-well microplate (Nunc #236108) at 5 μl/well. The luminescence reaction was triggered by injecting 50 mM Tris-HCl (pH 7.6) containing 50 mM calcium chloride solution at 100 μl/well. The luminescence patterns for 60 seconds were measured to determine half decay time of the luminescence (a time period in which the luminescence becomes half of the maximum luminescence intensity).

The target in data set [2] is T1, apoaequorin. As to the kind of experiment: Luminescence spectra of semi-synthetic aequorins. Format: biochemical. As to conditions: semi-synthetic aequorin, calcium added, 22 to 25° C. As for the experimental part:
In a quartz cell with light path length of 10 mm, 1 ml of 50 mM Tris-HCl (pH 7.6) containing 1 mM EDTA and 100 μl (100 μg protein) of a solution of the regenerated semi-synthetic aequorin were charged. Next, 100 μl of 50 mM Tris-HCl (pH 7.6) containing 0.1 ml of 10 mM calcium chloride solution was added thereto to start the luminescence reaction. The spectra were measured on a spectrofluorimeter (FP-6500, manufactured by Jasco Co., Ltd.) with the excitation light source turned off. The measurement conditions were bandwidth: 20 nm, response: 0.5 second, scan speed: 2000 nm/min and 22 to 25° C. The luminescence spectra measured were corrected.

The target in the next data set is T2, Renilla luciferase (Renilla reniformis, UniProt P27652).
T2 construct: made in house
T2 sequence (P27652 1-311): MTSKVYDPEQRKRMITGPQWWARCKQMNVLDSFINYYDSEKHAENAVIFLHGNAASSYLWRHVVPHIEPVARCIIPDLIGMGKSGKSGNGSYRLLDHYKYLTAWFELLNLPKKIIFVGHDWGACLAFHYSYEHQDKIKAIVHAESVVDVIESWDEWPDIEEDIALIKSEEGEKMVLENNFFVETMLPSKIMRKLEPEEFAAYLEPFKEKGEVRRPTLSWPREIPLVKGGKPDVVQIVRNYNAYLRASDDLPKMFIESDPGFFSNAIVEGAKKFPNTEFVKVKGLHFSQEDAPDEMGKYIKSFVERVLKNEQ
As to the kind of experiment: Substrate specificity and luminescence activity of Renilla luciferase. Format: biochemical. As to conditions: measured for 10 seconds, coelenterazine = 100. As for the experimental part: Renilla luciferase was purified by the method described in Inouye, S. & Shimomura, O. Biochem. Biophys. Res. Commun. (1997) 233: 349-353, and used for assay.
(§1) After 1 μl of Renilla luciferase (0.45 mg/ml) was dissolved in 100 μl of 30 mM Tris-HCl (pH 7.6) containing 10 mM EDTA, 1 μl of a solution of coelenterazine or its analogue (1 μg/μl) in ethanol was added to the solution to start the luminescence reaction. The luminescence activity was measured for 10 seconds on a luminometer luminescencer-PSN AB2200 (manufactured by Atto Co., Ltd.). The luminescence activity was determined by repeating the measurement of luminescence activity described above 3 times and expressed in terms of the maximum luminescence intensity (Imax) of luminescence activity.

In data set [3] the target is T3, 19 kDa protein from Oplophorus luciferase (Oplophorus gracilirostris, UniProt Q9GV45).
T3 construct: made in house
T3 sequence (Q9GV45 28-196): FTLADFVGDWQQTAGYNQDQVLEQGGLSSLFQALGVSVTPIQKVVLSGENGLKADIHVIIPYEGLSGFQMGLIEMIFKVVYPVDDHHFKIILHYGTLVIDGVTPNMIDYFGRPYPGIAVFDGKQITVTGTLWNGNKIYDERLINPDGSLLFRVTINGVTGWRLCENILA
The data set can be described thus: Substrate specificity and luminescence activity of the 19 kDa protein from Oplophorus luciferase. It is filed as biochemical. The note with it: measured for 60 seconds, coelenterazine = 100. As for the experimental part:
The 19 kDa protein from Oplophorus luciferase was purified by the method described in Inouye, S. and Sasaki, S., Protein Express. Purif. (2007) 56: 261-268 and provided for use.
as §1, with “of the 19 kDa protein (2.3 mg/ml) from Oplophorus” for “of Renilla”, “luciferase containing 1 mM DTT” for “luciferase (0.45 mg/ml)”, “luminescence reaction, and the” for “luminescence reaction. The”, “for 60” for “for 10”, “measurement” for “measurement of luminescence activity”

Data set [4] concerns the target T1, apoaequorin. As to the kind of experiment: Fluorescence spectra of fluorescent proteins formed from semi-synthetic aequorins by Ca2+. The note with it: fluorescent protein generated by calcium from semi-synthetic aequorin; excitation 330 nm, 25° C. It is filed as physicochemical. As for the experimental part: The fluorescence spectra of novel fluorescent proteins formed by the Ca^2+-triggerd reaction from semi-synthetic aequorins in EXAMPLE 3 were measured at 25° C. in a quartz cell (10 mm light path length) using a Jasco FP-6500 spectrofluorometer (excitation wavelength: 330 nm, emission/excitation bandwidth: 3 nm; response: 0.5 sec, scan speed, 1000 nm/min). The fluorescence spectra measured were corrected.

For a further data set, the system named is Gaussia luciferase. As to the kind of experiment: Substrate specificity and luminescence activity of Gaussia luciferase. It is filed as biochemical. As to conditions: measured for 10 seconds, coelenterazine = 100. As for the experimental part: Gaussia luciferase was purified by the method described in Japanese Patent Application KOKAI No. 2008-099669 and provided for use. After 1 μl of Gaussia luciferase (0.024 mg/ml) was dissolved in 100 μl of phosphate buffered saline (manufactured by Sigma Inc.) containing 0.01% Tween 20 (manufactured by Sigma Inc.) and 10 mM EDTA, 1 μl of a solution of coelenterazine or its analogue (1 μg/μl) in ethanol was mixed with the solution to start the luminescence reaction. The luminescence activity was measured for 10 seconds on a luminometer luminescencer-PSN AB2200 (manufactured by Atto Co., Ltd.). The luminescence activity was determined by repeating the measurement described above 3 times and expressed in terms of the maximum luminescence intensity (Imax) of luminescence activity.

For data set [5], the target named is T1, apoaequorin. The data set can be described thus: Fluorescence spectra of semi-synthetic gFP (coelenteramide analogue + apoaequorin, EDTA). The note with it: 10 mM EDTA buffer, excitation 337 nm. It is filed as physicochemical. As for the experimental part: Semi-synthetic gFP was prepared from recombinant apoaequorin and coelenteramide analogues as follows. In 1 ml of 50 mM Tris-HC 1 (pH 7.6) containing 10 mM EDTA and 1 mM DTT, apoaequorin (0.2 mg) was mixed with 8 μl of a coelenteramide analogue (1 μg/μl in anhydrous methanol). The mixture was allowed to stand 4° C. for 16 hours to prepare semi-synthetic gFP-like protein (hereinafter sometimes simply referred to as “semi-synthetic gFP”).
(§2) The fluorescence spectra were determined as follows. For coelenteramide analogue alone, the fluorescence was measured according to the procedures for semi-synthetic gFP and semi-synthetic BFP described in EXAMPLES 11 and 12, except for in the absence of apoaequorin, using 1 ml of 50 mM Tris-HCl (pH 7.6) containing 10 mM EDTA and 1 mM DTT or 1 ml of 50 mM Tris-HCl (pH 7.6) containing 10 mM CaCl2 and 1 mM DTT, in the final concentration of coelenteramide analogue adjusted to 8 μg/ml. The fluorescence spectra were measured at 25° C. in a quartz cell (10 mm light path length) using a Jasco FP-6500 spectrofluorometer (excitation wavelength: 337 nm, emission/excitation bandwidth: 3 nm; response: 0.5 sec, scan speed, 1000 nm/min).

Data set [6] in a line: Fluorescence spectra of coelenteramide analogue alone (absence of apoaequorin). It is filed as physicochemical. As to conditions: analogue alone 8 μg/ml; for Coelenteramide (Buffer containing CaCl2) Fluorescence intensity (rlu) / Coelenteramide (Buffer containing CaCl2) Maximum fluorescence wavelength λmax (nm): 10 mM CaCl2 buffer pH 7.6, excitation 337 nm; for Coelenteramide (EDTA-containing buffer) Fluorescence intensity (rlu) / Coelenteramide (EDTA-containing buffer) Maximum fluorescence wavelength λmax (nm): 10 mM EDTA buffer pH 7.6, excitation 337 nm. The procedure: as §2

Data set [7] has as its target T1, apoaequorin. The data set can be described thus: Fluorescence spectra of semi-synthetic BFP (coelenteramide analogue + apoaequorin, CaCl2). It is filed as physicochemical. As to conditions: 10 mM CaCl2 buffer, excitation 337 nm. The procedure:
Semi-synthetic gFP was prepared from recombinant apoaequorin and coelenteramide analogues as follows. In 1 ml of 50 mM Tris-HC 1 (pH 7.6) containing 10 mM CaCl2 and 1 mM DTT, apoaequorin (0.2 mg) was mixed with 8 μl of a coelenteramide analogue (1 μg/μl in anhydrous methanol). The mixture was allowed to stand at 4° C. for 16 hours to prepare semi-synthetic BFP-like protein (hereinafter sometimes simply referred to as “semi-synthetic BFP”).
as §2

T1 sequence (P07164 other isoform, or with tags, fused parts or gaps with the stated changes): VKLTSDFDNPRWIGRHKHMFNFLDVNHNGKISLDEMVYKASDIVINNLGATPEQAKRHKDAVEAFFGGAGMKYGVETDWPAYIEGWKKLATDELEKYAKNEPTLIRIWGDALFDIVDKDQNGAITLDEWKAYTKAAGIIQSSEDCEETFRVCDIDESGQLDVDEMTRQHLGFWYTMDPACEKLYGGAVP

`Oc1ccc(Cc2nc3c(Cc4ccccc4)nc(-c4ccc(O)cc4)cn3c2O)cc1` [Coelenterazine]: the “Half decay time” value at apoaequorin [1] amounted to 0.81 s. For the same molecule, the “Maximum luminescence wavelength λmax (nm)” value at apoaequorin [2] is listed as 472.5 nm. The “Luminescence activity Imax (%)” value (on Renilla luciferase; in data set [3]; in the data set with Gaussia luciferase) was 100.0% each time. The “Maximum fluorescence wavelength λmax (nm)” value on apoaequorin [4] was determined as 473.0 nm. The “Relative fluorescence intensity (rlu)” value at apoaequorin [4] is 63.3 rlu.
With `O=c1c(Cc2ccc(O)cc2)nc2c(-c3ccsc3)[nH]c(-c3ccc(O)cc3)cn1-2` [Compound 3g, 2-(4-Hydroxybenzyl)-6-(4-hydroxyphenyl)-8-(thiophen-3-yl)imidazo[1,2-a]pyrazin-3(7H)-one], the entries for the “Luminescence activity Imax (%)” value (on Renilla luciferase; in data set [3]; in the data set with Gaussia luciferase) were 0.00%, 0.3% and 0.00%, respectively.
With `O=c1c(Cc2ccc(O)cc2)nc2c(-c3csc4ccccc34)[nH]c(-c3ccc(O)cc3)cn1-2` [Compound 3i, 8-(Benzo[b]thiophen-3-yl)-2-(4-hydroxybenzyl)-6-(4-hydroxyphenyl)imidazo[1,2-a]pyrazin-3(7H)-one], the “Luminescence activity Imax (%)” value on Renilla luciferase came to 0.00%; in data set [3], 0.09%; in the data set with Gaussia luciferase, 0.00%.
`O=C(Cc1ccc(O)cc1)Nc1cnc(-c2ccc(O)cc2)cn1` [Compound 4s, 2-(4-Hydroxyphenyl)-N-[5-(4-hydroxyphenyl)pyrazin-2-yl]acetamide]: on apoaequorin [5], the “Semi-synthetic gFP (EDTA-containing buffer) Fluorescence intensity (rlu)” value (from here on “Semi-synthetic gFP … (rlu)”) worked out at 106.4 rlu and the “Semi-synthetic gFP (EDTA-containing buffer) Maximum fluorescence wavelength λmax (nm)” value (“Semi-synthetic gFP … (nm)” below) is reported as 460.0 nm. Also, in [6], the “Coelenteramide (Buffer containing CaCl2) Fluorescence intensity (rlu)” value was 2.0 rlu, the “Coelenteramide (Buffer containing CaCl2) Maximum fluorescence wavelength λmax (nm)” value amounted to 468.5 nm, the “Coelenteramide (EDTA-containing buffer) Fluorescence intensity (rlu)” value is 1.9 rlu and the “Coelenteramide (EDTA-containing buffer) Maximum fluorescence wavelength λmax (nm)” value is 457.5 nm. For the same molecule, at apoaequorin [7], the Fluorescence intensity is 22.1 rlu and the “Semi-synthetic BFP (Buffer containing CaCl2) Maximum fluorescence wavelength λmax (nm)” value (“Semi-synthetic BFP” below) was determined as 408.5 nm.
Consider `Oc1ccc(NC(=S)Nc2ncc(-c3ccc(O)cc3)nc2Cc2ccccc2)cc1` [Compound 4v, 1-[3-Benzyl-5-(4-hydroxyphenyl)pyrazin-2-yl]-3-(4-hydroxyphenyl)thiourea], for which, on apoaequorin [5], the “Semi-synthetic gFP … (rlu)” value is 3.6 rlu and the “Semi-synthetic gFP … (nm)” value amounted to 491.0 nm. In addition, in data set [6], the “Coelenteramide (Buffer containing CaCl2) Fluorescence intensity (rlu)” value turned out to be 1.4 rlu, the “Coelenteramide (Buffer containing CaCl2) Maximum fluorescence wavelength λmax (nm)” value came to 466.0 nm, the “Coelenteramide (EDTA-containing buffer) Fluorescence intensity (rlu)” value is on record as 1.4 rlu and the “Coelenteramide (EDTA-containing buffer) Maximum fluorescence wavelength λmax (nm)” value is 484.0 nm. For the same molecule, at apoaequorin [7], the Fluorescence intensity was determined as 3.3 rlu and the “Semi-synthetic BFP” value came out at 430.5 nm.
In the case of `CC(C(=O)Nc1ncc(-c2ccc(O)cc2)nc1Cc1ccccc1)c1ccc(O)cc1` (stereo not drawn) [Compound 4w, N-[3-Benzyl-5-(4-hydroxyphenyl)pyrazin-2-yl]-2-(4-hydroxyphenyl)propanamide], at apoaequorin [5], the “Semi-synthetic gFP … (rlu)” value is recorded as 54.6 rlu and the “Semi-synthetic gFP … (nm)” value worked out at 487.0 nm. Further, in data set [6], the “Coelenteramide (Buffer containing CaCl2) Fluorescence intensity (rlu)” value was determined as 1.4 rlu, the “Coelenteramide (Buffer containing CaCl2) Maximum fluorescence wavelength λmax (nm)” value was 450.5 nm, the “Coelenteramide (EDTA-containing buffer) Fluorescence intensity (rlu)” value came out at 1.3 rlu and the “Coelenteramide (EDTA-containing buffer) Maximum fluorescence wavelength λmax (nm)” value was 451.0 nm. Further, at apoaequorin [7], the Fluorescence intensity is given as 181.4 rlu and the “Semi-synthetic BFP” value is on record as 466.0 nm.
As for `O=C(Nc1ncc(-c2ccc(O)cc2)nc1Cc1ccccc1)c1cccc2cc(O)ccc12` [Compound 4z, N-[3-Benzyl-5-(4-hydroxyphenyl)pyrazin-2-yl]-6-hydroxy-1-naphthamide], at apoaequorin [5], the “Semi-synthetic gFP … (rlu)” value was 246.3 rlu and the “Semi-synthetic gFP … (nm)” value was 492.5 nm. In data set [6], the “Coelenteramide (Buffer containing CaCl2) Fluorescence intensity (rlu)” value was found to be 13.2 rlu, the “Coelenteramide (Buffer containing CaCl2) Maximum fluorescence wavelength λmax (nm)” value is given as 410.5 nm, the “Coelenteramide (EDTA-containing buffer) Fluorescence intensity (rlu)” value was determined as 20.2 rlu and the “Coelenteramide (EDTA-containing buffer) Maximum fluorescence wavelength λmax (nm)” value worked out at 409.5 nm. At apoaequorin [7], the Fluorescence intensity turned out to be 24.6 rlu and the “Semi-synthetic BFP” value is recorded as 487.0 nm.
